Experimental data reported in US11299496B2, “Ligands for alpha-7 nicotinic acetylcholine receptors and methods of treating neurological and inflammatory conditions” (Northeastern University, priority 2014, dated 2022).

Molecular target: T1, human alpha-7 nAChR (Homo sapiens, UniProt P36544)
T1 construct: expressed in transfected cells; host or cells: Xenopus laevis oocytes (cRNA injection)
Assay: Two-electrode voltage clamp of alpha-7 nAChR expressed in Xenopus oocytes (net charge)
Type: cell-based
Settings: area under the curve of current vs. time; for Charge Alone: compound alone acting as an allosteric agonist; for Charge +C: compound together with choline or ACh, includes PAM and ago-PAM activity; call rule not given here
Protocol: The human alpha-7 nAChR receptor clone was obtained from Dr. Jon Lindstrom {University of Pennsylvania, Philadelphia, Pa.), aid the RIC-3 clone from Dr. Millet Treinin (Hebrew University, Jerusalem, Israel) for the purpose of co-injection with a7 to improve the level and speed of receptor expression (Halevi et al., 2003). After linearization and purification of cloned cDNA's, RNA, transcripts were prepared rising the appropriate mMessage mMachine kit tiom Ambion (Austin, Tex.).
Expression in X, laeivis Oocytes
Oocytes were obtained from mature (>9 cm) female Xenopus laeivis African frogs (Nasco, Ft. Atkinson, Wis.). Frogs were anesthetized in 0.7 g/L solution of ethyl 3-aminobenzoate methanesulfonate buffered with sodium bicarbonate, and oocytes were surgically removed through an abdominal incision. Harvested oocytes were treated with 1.25 mg/ml collagenase (Worthington Biochemicals, Freehold, N.J.) in calcium-free Barth's solution (88 mM NaCl, 1 mM KCl, 2.38 mM NaHCO3, 0.82 mM MgSO4, 15 mM HEPES, 12 mg/L tetracycline, pH 7.6) for 3-4 hours to remove the follicular layer. Stage-5 oocytes were isolated and injected with 50 nL (5-20 ng) of human alpha-7 and RIC-3 cRNA. Suitable levels of receptor expression were typically achieved 2-6 days after injection of cRNA. For experiments involving the PAM 4BP-TQS/GAT-107, where standard levels of expression result in ion currents too large to be recorded in voltage clamp, experiments were typically conducted 1-3 days after RNA injection.
Two-electrode voltage clamp experiments were conducted using OpusXpress6000A (Molecular Devices, Sunnyvale, Calif.), an integrated system that provides automated impalement and voltage clamp of up to eight oocytes in parallel. Both the current and voltage electrodes were filled with 3 M KCl, and oocytes were clamped at a holding potential of −60 mV. Data were collected at 50 Hz and filtered at 20 Hz. The oocytes were bath-perfused with Ringer's solution (115 mM NaCl, 10 mM HEPES, 2.5 mM KCl, 1.8 mM CaCl2, pH 7.3), and agonist solutions were delivered from a 96-well drug plate using disposable tips. Flow rates were set at 2 mL/min, with each drug or control solution delivered in 12 s durations, followed˜by 181 s washouts with Ringer's unless noted otherwise.
Experimental Protocols and Data Analysis
Responses of human alpha-7 receptors to agonists were measured as both peek current and net charge measured over a 120 s period beginning with the compound application (Papke and Papke, 2002). […] In experiments involving positive allosteric modulators (PAMs), the fast desensitization of alpha-7 was eliminated, allowing peak currents to be used as a valid measurement of the receptor-mediated responses (Wang et al., 2012; Williams et al., 2011).
Oocytes received two control ACh applications prior to receiving any drug in order to establish a steady reference response, and they received one or more control ACh applications at the end of all experiments. For experiments involving drug incubation through bath applications, all responses were normalized to the average of two ACh control responses taken immediately prior to the switch of bath solution, for each cell individually. These normalization procedures had the effect of compensating for differing levels of receptor expression among the multiple oocytes used in each experiment. Each experiment was conducted on at least four oocytes, with mean values and standard errors (S.E.M.) calculated from their normalized responses. […]

T1 sequence (P36544 23-502): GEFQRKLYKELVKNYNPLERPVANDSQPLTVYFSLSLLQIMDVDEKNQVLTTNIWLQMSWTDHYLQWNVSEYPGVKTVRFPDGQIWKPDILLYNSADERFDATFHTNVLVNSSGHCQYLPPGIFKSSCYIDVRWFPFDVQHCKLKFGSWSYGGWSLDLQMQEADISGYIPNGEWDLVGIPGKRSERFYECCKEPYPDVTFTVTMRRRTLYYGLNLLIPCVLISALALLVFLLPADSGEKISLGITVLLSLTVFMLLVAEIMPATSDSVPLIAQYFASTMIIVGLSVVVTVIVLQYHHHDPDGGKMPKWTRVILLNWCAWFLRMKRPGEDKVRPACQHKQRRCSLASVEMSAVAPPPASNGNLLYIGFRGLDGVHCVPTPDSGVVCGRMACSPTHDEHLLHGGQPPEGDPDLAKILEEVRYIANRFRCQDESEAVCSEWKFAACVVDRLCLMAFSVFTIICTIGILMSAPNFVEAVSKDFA

| Structure (SMILES) | Charge Alone | Charge +C |
| --- | --- | --- |
| CNS(=O)(=O)c1ccc2c(c1)[C@H]1C=CC[C@H]1[C@@H](c1ccc(Br)cc1)N2 (stereo in doubt) [Compound 22, 4-(4-bromophenyl)-N-methyl-3a,4,5,9b-tetrahydro-3H-cyclopenta[c]quinoline-8-sulfonamide] | Inactive | Inactive |
| NS(=O)(=O)c1ccc2c(c1)[C@H]1C=CC[C@H]1[C@@H](c1ccc(S(F)(F)(F)(F)F)cc1)N2 (stereo in doubt) [Compound 31, 4-(4-(pentafluoro-λ^6-sulfanyl)phenyl)-3a,4,5,9b-tetrahydro-3H-cyclopenta[c]quinoline-8-sulfonamide] | 89 | 206 |
| COC(=O)Nc1ccc([C@H]2Nc3ccc(S(N)(=O)=O)cc3[C@H]3C=CC[C@H]32)cc1 [Compound 59, methyl(4-(8-sulfamoyl-3a,4,5,9b-tetrahydro-3H-cyclopenta[c]quinolin-4-yl)phenyl)carbamate] | – | 480 |
| CCN(CC)S(=O)(=O)c1ccc2c(c1)[C@H]1C=CC[C@H]1[C@@H](c1ccc(Br)cc1)N2 (stereo in doubt) [Compound 55, 4-(4-bromophenyl)-N,N-diethyl-3a,4,5,9b-tetrahydro-3H-cyclopenta[c]quinoline-8-sulfonamide] | Inactive | Inactive |
| NS(=O)(=O)c1ccc2c(c1)[C@H]1C=CC[C@H]1[C@@H](c1ccc(Br)cn1)N2 (stereo in doubt) [Compound 97, 4-(5-bromopyridin-2-yl)-3a,4,5,9b-tetrahydro-3H-cyclopenta[c]quinoline-8-sulfonamide] | 7 | 357 |
| NS(=O)(=O)c1ccc([C@H]2Nc3ccc(Br)cc3[C@H]3C=CC[C@H]32)cc1 (stereo in doubt) [Compound 4, 4-(8-bromo-3a,4,5,9b-tetrahydro-3H-cyclopenta[c]quinolin-4-yl)benzenesulfonamide] | 0 | 8.4 |
| CCCNS(=O)(=O)c1ccc2c(c1)[C@H]1C=CC[C@H]1[C@H](c1c(C)c(C)cc(C)c1C)N2 (stereo in doubt) [Compound 111, N-propyl-4-(2,3,5,6-tetramethylphenyl)-3a,4,5,9b-tetrahydro-3H-cyclopenta[c]quinoline-8-sulfonamide] | Inactive | Inactive |
| NS(=O)(=O)c1ccc2c(c1)[C@H]1C=CC[C@H]1[C@@H](c1ccc(Br)c3ccccc13)N2 (stereo in doubt) [Compound 53, 4-(4-bromonaphthalen-1-yl)-3a,4,5,9b-tetrahydro-3H-cyclopenta[c]quinoline-8-sulfonamide] | – | 76 |
| O=S(=O)(NCC1CC1)c1ccc2c(c1)[C@H]1C=CC[C@H]1[C@@H](c1ccc(Br)cc1)N2 (stereo in doubt) [Compound 105, 4-(4-bromophenyl)-N-(cyclopropylmethyl)-3a,4,5,9b-tetrahydro-3H-cyclopenta[c]quinoline-8-sulfonamide] | Inactive | Inactive |
| NS(=O)(=O)c1ccc2c(c1)[C@H]1C=CC[C@H]1[C@@H](c1ccc(C3(C(F)(F)F)N=N3)cc1)N2 [Compound 44, (3aR,4S,9bS)-4-(4-(3-(trifluoromethyl)-3H-diazirin-3-yl)phenyl)-3a,4,5,9b-tetrahydro-3H-cyclopenta[c]quinoline-8-sulfonamide] | 14 | 350 |
| CC(=O)c1ccc2c(c1)[C@H]1C=CC[C@H]1[C@@H](c1cc3c(cc1Br)OCO3)N2 [Compound 30] | Inactive | Inactive |
| CS(=O)(=O)c1ccc2c(c1)[C@H]1C=CC[C@H]1[C@@H](c1ccc(Br)cc1)N2 [Compound 117, 4-(4-bromophenyl)-8-(methylsulfonyl)-3a,4,5,9b-tetrahydro-3H-cyclopenta[c]quinolone] | Inactive | Inactive |
| NS(=O)(=O)c1ccc2c(c1)[C@H]1C=CC[C@H]1[C@@H](c1cccnc1)N2 [Compound 51, 4-(pyridin-3-yl)-3a,4,5,9b-tetrahydro-3H-cyclopenta[c]quinoline-8-sulfonamide] | – | 10 |
| O=S(=O)(c1ccc2c(c1)[C@@H]1C=CC[C@@H]1[C@H](c1ccc(Br)cc1)N2)N1CCCC1 [Compound 56, (3aS,4R,9bR)-4-(4-bromophenyl)-8-(pyrrolidin-1-ylsulfonyl)-3a,4,5,9b-tetrahydro-3H-cyclopenta[c]quinolone] | Inactive | Inactive |
| O=S(=O)(c1ccc2c(c1)[C@H]1C=CC[C@H]1[C@@H](c1ccc(Br)cc1)N2)N1CCCC1 [Compound 57, (3aR,4S,9bS)-4-(4-bromophenyl)-8-(pyrrolidin-1-ylsulfonyl)-3a,4,5,9b-tetrahydro-3H-cyclopenta[c]quinolone] | Inactive | Inactive |
| NS(=O)(=O)c1ccc2c(c1)[C@@H]1C=CC[C@@H]1[C@H](c1ccc(I)cc1)N2 [Compound 45, (3aS,4R,9bR)-4-(4-iodophenyl)-3a,4,5,9b-tetrahydro-3H-cyclopenta[c]quinoline-8-sulfonamide] | Inactive | Inactive |
| NS(=O)(=O)c1ccc2c(c1)[C@H]1C=CC[C@H]1[C@@H](c1ccc(-c3ccccc3)cc1)N2 (stereo in doubt) [Compound 12, 4-([1,1′-biphenyl]-4-yl)-3a,4,5,9b-tetrahydro-3H-cyclopenta[c]quinoline-8-sulfonamide] | – | 76 |
| NS(=O)(=O)c1ccc2c(c1)[C@H]1C=CC[C@H]1[C@@H](c1ccc3sccc3c1)N2 (stereo in doubt) [Compound 96, 4-(benzo[b]thiophen-5-yl)-3a,4,5,9b-tetrahydro-3H-cyclopenta[c]quinoline-8-sulfonamide] | 116 | 156 |
| NS(=O)(=O)c1ccc2c(c1)N[C@H](c1ccc(Br)cc1)[C@@H]1CC=C[C@H]21 (stereo in doubt) [Compound 10, 4-(4-bromophenyl)-3a,4,5,9b-tetrahydro-3H-cyclopenta[c]quinoline-7-sulfonamide] | Inactive | Inactive |
| CS(=O)(=O)Nc1ccc2c(c1)[C@H]1C=CC[C@H]1[C@@H](c1ccc(Br)cc1)N2 (stereo in doubt) [Compound 115, N-(4-(4-bromophenyl)-3a,4,5,9b-tetrahydro-3H-cyclopenta[c]quinolin-8-yl)methanesulfonamide] | Inactive | Inactive |
| CCCNS(=O)(=O)c1ccc2c(c1)[C@H]1C=CC[C@H]1[C@@H](c1ccc(Br)cc1)N2 (stereo in doubt) [Compound 107, 4-(4-bromophenyl)-N-propyl-3a,4,5,9b-tetrahydro-3H-cyclopenta[c]quinoline-8-sulfonamide] | Inactive | Inactive |
| CCCNS(=O)(=O)c1ccc2c(c1)[C@H]1C=CC[C@H]1[C@@H](c1ccccc1)N2 (stereo in doubt) [Compound 112, 4-phenyl-N-propyl-3a,4,5,9b-tetrahydro-3H-cyclopenta[c]quinoline-8-sulfonamide] | Inactive | Inactive |
